Measured values published in ChEMBL document CHEMBL1142009, “Efficient synthesis of bicyclic oxazolino- and thiazolino[3,2-c]pyrimidine-5,7-diones and its application to the synthesis of GnRH antagonists” (Bioorg Med Chem Lett, 2005).

These compounds were tested against T1, Gonadotropin-releasing hormone receptor (Homo sapiens, UniProt P30968) (assay: Binding affinity was determined against human gonadotropin-releasing hormone receptor).
T1 sequence (P30968 whole entry): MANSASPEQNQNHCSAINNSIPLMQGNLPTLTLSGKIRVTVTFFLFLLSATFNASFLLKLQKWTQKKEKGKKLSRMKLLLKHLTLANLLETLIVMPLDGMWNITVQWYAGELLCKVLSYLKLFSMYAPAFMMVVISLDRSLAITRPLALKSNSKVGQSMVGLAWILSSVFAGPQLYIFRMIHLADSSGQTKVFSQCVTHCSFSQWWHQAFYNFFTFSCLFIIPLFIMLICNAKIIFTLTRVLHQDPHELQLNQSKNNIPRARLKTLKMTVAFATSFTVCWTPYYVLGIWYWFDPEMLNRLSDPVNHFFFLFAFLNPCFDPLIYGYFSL

| SMILES | Ki [nM] |
| --- | --- |
| NC(Cn1c(=O)c(-c2ccccc2Cl)c2n(c1=O)C(c1ccccc1F)CS2)c1ccccc1 (stereo not given) | 93 |
| COc1cccc(-c2c3n(c(=O)n(CC(N)c4ccccc4)c2=O)C(c2ccccc2F)CS3)c1F (stereo not given) | 40 |
| NC(Cn1c(=O)c(-c2ccccc2F)c2n(c1=O)C(c1ccccc1F)CS2)c1ccccc1 (stereo not given) | 220 |
| COc1cccc(-c2c3n(c(=O)n(CC(N)c4ccccc4)c2=O)C(c2ccccc2F)CS3)c1Cl (stereo not given) | 4.5 |

Continued, values first:

| Ki [nM] | SMILES |
| --- | --- |
| 230 | NC(Cn1c(=O)c(-c2ccccc2F)c2n(c1=O)C(c1ccccc1F)CO2)c1ccccc1 (stereo not given) |
| 460 | COc1cccc(-c2c3n(c(=O)n(CCNCc4ccccc4)c2=O)[C@@H](c2ccccc2)CO3)c1F |
| 110 | N[C@@H](Cn1c(=O)c(-c2ccccc2F)c2n(c1=O)C(c1ccccc1)CS2)c1ccccc1 (stereo not given in full) |
| 700 | NC(Cn1c(=O)c(-c2ccccc2F)c2n(c1=O)C(c1ccccc1)CO2)c1ccccc1 (stereo not given) |
| 125 | COc1cccc(-c2c3n(c(=O)n(CC(N)c4ccccc4)c2=O)C(c2ccccc2)CO3)c1F (stereo not given) |
| 870 | COc1cccc(-c2c3n(c(=O)n(CC(N)c4ccccc4)c2=O)C(c2ccccc2)CO3)c1 (stereo not given) |
